The source of these data is patent publication US12163955B2, “Antibodies to methotrexate and uses thereof” (Ark Diagnostics, Inc., priority 2023, dated 2024).

Series [1] in a line: MTX Assay calibration curve (homogeneous enzyme immunoassay, Beckman AU680). It is filed as biochemical. As for the experimental part:
The top clones (281H3/28K1, 321H1/32K2 and 64H1/64K1) were selected based on performance for larger scale production and purification (Table 5). These clones were then used for further studies. To make the initial antibody reagent, both clones were diluted to 100 μg/mL with antibody diluent. Then a 1:4 ratio mixture of […] to Clone 64H1/64K1 was made and spiked into antibody diluent. […]
The MTX Assay calibration range is from 0.00 to 1.30 μM. Calibration curves were generated on the Beckman AU680 by assaying each calibrator level in quadruplicate. The Beckman AU680 analyzer performs the nonlinear data analysis automatically using multi-parameter curve-fit math model. Typical calibrator separations are shown for the MTX Assay in Table 6. […] The calculation for feasibility lot percent modulation is shown below: • Max Rate=640.3 mA/min. • Negative Calibrator Rate=358.5 mA/min. • High Calibrator Rate (1.30 μM)=608.7 mA/min. • Total Curve ΔmA=High Cal. Rate−Negative Cal.

The conditions of series [2]: cited from earlier work.
For series [3] the following is noted: single dose; within 15 minutes; cited from earlier work.

Regarding `CN(Cc1cnc2nc(N)nc(N)c2n1)c1ccc(C(=O)N[C@@H](CCC(=O)O)C(=O)O)cc1` [MTX, (2S)-2-[[4-[(2,4-diaminopteridin-6-yl)methyl-methylamino]benzoyl]amino]pentanedioic acid], the Calibration curve separation in series [1] (0.00-0.05 μM) was 21.5 mA/min; in series [1] (0.00-1.30 μM), 250.2 mA/min; in series [1] (0.05-0.15 μM) it was 44.9 mA/min; in series [1] (0.15-0.35 μM), 79.7 mA/min; in series [1] (0.35-0.65 μM), 61.0 mA/min; in series [1] (0.65-1.30 μM), 43.1 mA/min. Also, the Calibrator rate is listed as 358.5 mA/min in series [1] (Calibrator Conc. 0.00 μM); 380.0 mA/min in series [1] (Calibrator Conc. 0.05 μM); 424.8 mA/min in series [1] (Calibrator Conc. 0.15 μM); 504.6 mA/min in series [1] (Calibrator Conc. 0.35 μM); 565.6 mA/min in series [1] (Calibrator Conc. 0.65 μM); 608.7 mA/min in series [1] (Calibrator Conc. 1.30 μM). Moreover, the “MTX serum concentration reached” value in series [2] (following a 4-hour infusion, pediatric patients with osteosarcoma) is “up to 3100 μmol/L”. The MTX serum concentration result in series [2] (high dose therapy for osteosarcoma) is recorded as “exceed 1000 μmol/L”. Also, the “MTX decay curve level” value in series [2] (osteosarcoma, 72 hours) is reported as “less than 0.3 μmol/L”.

B1: glucarpidase: antidote that converts MTX into DAMPA and glutamate (protein, UniProt P06621 23-415, looked up)
Carboxypeptidase G2: ALAQKRDNVLFQAATDEQPAVIKTLEKLVNIETGTGDAEGIAAAGNFLEAELKNLGFTVTRSKSAGLVVGDNIVGKIKGRGGKNLLLMSHMDTVYLKGILAKAPFRVEGDKAYGPGIADDKGGNAVILHTLKLLKEYGVRDYGTITVLFNTDEEKGSFGSRDLIQEEAKLADYVLSFEPTSAGDEKLSLGTSGIAYVQVNITGKASHAGAAPELGVNALVEASDLVLRTMNIDDKAKNLRFNWTIAKAGNVSNIIPASATLNADVRYARNEDFDAAMKTLEERAQQKKLPEADVKVIVTRGRPAFNAGEGGKKLVDKAVAYYKEAGGTLGVEERTGGGTDAAYAALSGKPVIESLGLPGFGYHSDKAEYVDISAIPRRLYMAARLIMDLGAGK
B1: the “reduction of plasma MTX concentrations” value in series [3] is on record as ≥ 97%.
